# Assay results reported in patent US20250197363A1, “THIADIAZOLE COMPOUND, AND PHARMACEUTICAL COMPOSITION FOR PREVENTING OR TREATING INFLAMMATORY DISEASES, INCLUDING SAME” (Cureverse Incorporated, priority 2022, published 2025).
# What was measured:
# [1] = tested on: LPS-stimulated Raw264.7 cells; assay: Nitric oxide (NO) production, Griess reagent; format: cell-based; conditions: LPS-stimulated Raw264.7, 24 hours
# Procedure: The concentration of NO was measured using the nitrite concentration in the culture medium with the Griess reagent system (Promega). Raw264.7 cells were adjusted to 2.5×10^5 cells/mL using DMEM medium, inoculated into 24-well plates, and pre-cultured for 20 hours in a 5% CO2 incubator. The cells were treated with […] of LPS and various concentrations of the example compounds and recultured for 24 hours. After obtaining the supernatant of the culture medium, the NO concentration was measured using the Griess reagent system according to the protocol provided by the manufacturer. The absorbance was measured at 540 nm using a microplate reader [BMG Labtech (located in Offenburg, Germany)]. The concentration of NO in the cell culture medium was calculated by comparing it with a standard curve for each concentration of sodium nitrite (NaNO2).
# 1 mg/mL lipopolysaccharide (LPS) and the compounds of Example 1 at concentrations of 0, 12 μM, 25 μM, and 50 μM were added to Raw264.7 cells, cultured for 24 hours, and changes in NO concentration in the upper layer of the culture were analyzed.
# IL-6 = IL-6 secretion, cytometric bead array; format: cell-based; conditions: LPS-stimulated Raw264.7, 24 hours; 12 μM, 25 μM, 50 μM
# Description: (§1) The supernatant was dispensed using the same method as used for measuring NO. High amounts of TNF-α and IL-6 in the supernatant were quantified using the multiplex bead-based immunoassay (BD™ Cytometric Bead Array) system and flow cytometry (BD Biosciences).
# (§2) LPS, well known as an endotoxin present in the outer cell membrane of Gram-negative bacteria, stimulates macrophages or monocytes to promote the secretion of inflammatory cytokines such as tumor necrosis factor-α (TNF-α), interleukin-1l (IL-1), and interleukin-6 (IL-6). Accordingly, in order to analyze the effect of the compound of Example 1 on inhibiting cytokine secretion, RAW264.7 cells were cultured for 24 hours by adding 1 mg/mL of LPS and the compound of Example 1 at concentrations of 0, 12 μM, 25 μM, and 50 μM, and the concentrations of IL-6 and TNFα in the culture supernatant were measured.
# pIKKαβ = pIKKαβ (Mus musculus (Mouse), UniProt O88351+Q60680); assay: pIKKαβ protein expression, Western blot; format: cell-based; conditions: LPS-stimulated Raw264.7; 12 μM, 25 μM, 50 μM
# Procedure: (§3) The cells were washed twice with cold PBS and lysed with RIPA buffer (Roche) containing a complete protease inhibitor cocktail. Protein concentration was quantified using the BCA protein assay kit (Pierce, IL, USA), and 30 μL of lysate was separated by 10% SDS-PAGE. The separated proteins were transferred to a polyvinylidene difluoride (PVDF) membrane (Biorad, CA, USA) at 70 mA for 1 hour and 30 minutes, then blocked with tris-buffered saline (TBST; pH 7.5) containing 50 mg/mL skim milk at room temperature for 2 hours. As antibodies to examine the expression levels of iNOS and pIKKαβ, anti-iNOS and pIKKαβ were used, diluted 1:1000 and reacted at room temperature for 2 hours, followed by washing three times with TBST. As secondary antibodies, horseradish peroxidase (HRP)-conjugated anti-mouse IgG and anti-rabbit IgG were diluted 1:2000 and reacted at room temperature for 1 hour, followed by washing three times with TBST. Peroxidase activity was detected using ECL-Plus according to the manufacturer's protocol.
# Nuclear factor-kappa B (NF-κB), which plays an important role in inflammatory responses, is a transcription factor that regulates the synthesis of various cytokines, chemokines, and growth factors. […]
# RAW 264.7 cells = assay: Cytotoxicity, CCK-8 assay; format: cell-based; conditions: Raw264.7 cells; 12 μM, 25 μM, 50 μM
# Procedure: To evaluate the cytotoxicity of the sample, cell proliferation was tested using a cell counting kit [CCK-8; Dojindo Laboratories (Tokyo, Japan)]. RAW 264.7 cell 1×10^4 cells/mL were dispensed into a well plate, and after pre-culturing for 20 hours, […] of LPS and example compounds were added at different concentrations and cultured for 24 hours in an incubator at 37° C. and 5% CO2. After culturing, 10 μl CCK-8 reagent was added and recultured for 1 to 2 hours, and the absorbance was measured. The absorbance was measured at 450 nm using a microplate reader [BMG Labtech (located in Offenburg, Germany)].
# In order to evaluate the cytotoxicity of the compound of Example 1, Raw264.7 cells, a macrophage cell line, were treated with the compound of Example 1 at concentrations of 0, 12 μM, 25 μM, and 50 μM, respectively, and then CCK8 assay was performed according to <Experiment Method> 3 above. […] Specifically, cell proliferation was similar to that of the vehicle group even at a concentration of up to 50 μM, and no significance was detected.
# [2] = molecular target: PPARδ ligand-binding domain (LBD) (Homo sapiens (Human), UniProt Q03181); assay: PPARδ activation, TR-FRET coactivator peptide recruitment (enzyme activity EC50); format: biochemical; conditions: GST-PPARδ LBD 5 nM, read-out: Enzymatic activity (EC50)
# NF-κB = assay: NF-κb promoter-luciferase assay; format: cell-based; conditions: LPS-treated Raw264.7/NF-κb-luciferase cells; 12 μM, 25 μM, 50 μM
# Procedure: Raw264.7/NF-kb-luc cells were treated with 1 mg/mL LPS and various concentrations of compounds using the same method as used for measuring NO. 16 hours later, after adding the D-luciferin solution to the cells, luminescence images were obtained using the IVIS Lumina III. Quantification of the luminescence images was performed using Living Imaging software.
# Nuclear factor-kappa B (NF-κB), which plays an important role in inflammatory responses, is a transcription factor that regulates the synthesis of various cytokines, chemokines, and growth factors. NFκB is composed of p50 and p65, enters the nucleus, acts as a transcription factor, and synthesizes iNOS, COX-2, and inflammation-related cytokines, and generally binds to the inhibitor NF-κBα (IκBα) in the cytoplasm, thereby inhibiting the action of NF-κB. In order to confirm whether NF-κb-related cell signaling induced in Raw264.7 cells was affected by the compound of Example 1, NF-κb promoter-luciferase analysis and pIKKαβ expression change analysis were performed in Raw264.7 cells using 1 mg/mL LPS and the compound of Example 1 at concentrations of 0, 12 μM, 25 μM, and 50 μM.
# iNOS = iNOS (Mus musculus (Mouse), UniProt P29477); assay: iNOS protein expression, Western blot; format: cell-based; conditions: LPS-stimulated Raw264.7; 12 μM, 25 μM, 50 μM
# Procedure: as §3
# TNF-α = TNF-α secretion, cytometric bead array; format: cell-based; conditions: LPS-stimulated Raw264.7, 24 hours; 12 μM, 25 μM, 50 μM
# Description: as §1, §2
# [3] = tested on: macrophage infiltration into carrageenan-injected sole; assay: Macrophage tracking by fluorescence imaging in carrageenan-induced acute inflammation; format: in vivo, mouse; conditions: C57BL/6 mice, 50 mg/kg oral, 6 hours after inducing inflammation, versus vehicle group
# Procedure: 2 mL of thioglycollate medium (BD, USA) was injected into the abdominal cavity of a C57Bl/6 mouse, and three days later, the mouse was cervically dislocated, and 8 mL of Dulbecco's modified Eagle's medium (DMEM) was injected into the abdominal cavity to collect cells. After centrifugation, the cells were suspended in DMEM containing 10% fetal bovine serum (FBS) and 1% penicillin-streptomycin and cultured in a 5% CO2 incubator at 37° C. for 2 hours. Non-adherent cells were removed, and the remaining cells were used for experiments.
# The acute anti-inflammatory activity of the example compound was evaluated using a macrophage tracking technique with fluorescence imaging. Macrophages extracted from the mouse abdominal cavity were labeled with Vybrant™ DiD Cell-Labeling Solution and then administered to the mouse via intravenous injection. The next day, 50 mg/kg of the example compound was orally administered, and 1 hour later, a 0.1% Carrageenan (CG) solution or PBS was subcutaneously injected into the right or left sole of the mouse. Fluorescent images were obtained using IVIS Lumina III at the designated time.
# The inflammation model induced by λ-carrageenan in the mouse foot region is an acute arthritis model and is useful when checking the effect of suppressing edema due to osteoarthritis. […]
# Chain of PPARδ ligand-binding domain (LBD) (Q03181 211-439): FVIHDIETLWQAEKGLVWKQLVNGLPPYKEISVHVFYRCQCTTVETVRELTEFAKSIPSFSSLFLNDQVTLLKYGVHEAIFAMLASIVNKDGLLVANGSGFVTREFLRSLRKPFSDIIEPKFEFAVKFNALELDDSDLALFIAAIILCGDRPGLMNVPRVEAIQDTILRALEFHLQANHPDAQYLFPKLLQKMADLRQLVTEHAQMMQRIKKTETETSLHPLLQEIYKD
SMILES,EC50 [2] [nM],further results
"Cc1cc(SCc2nnc(-c3ccc(C(F)(F)F)cc3)s2)ccc1OCC(=O)O [Example 1, 2-(2-methyl-4-(((5-(4-(trifluoromethyl)phenyl)-1,3,4-thiadiazol-2-yl)methyl)thio)phenoxy)acetic acid]",39.9,"NO concentration produced ([1]; compound 12.5 μM (0 μM control 22.8±1.3 μM)): 18.9 ± 0.3 µM; NO concentration produced ([1]; compound 25 μM (0 μM control 22.8±1.3 μM)): 14.8 ± 0.54 µM; NO concentration produced ([1]; compound 50 μM (0 μM control 22.8±1.3 μM)): 2.41 ± 0.24 µM; production of IL-6 (IL-6): effectively inhibited; pIKKαβ protein expression (pIKKαβ): effectively reduced; cytotoxicity (CCK8 assay, cell proliferation) (RAW 264.7 cells): no cytotoxicity at all concentrations; NF-κb-luciferase luminescent signals (NF-κB): decreased in a concentration-dependent manner; iNOS protein expression (iNOS): significantly suppressed; production of TNFα (TNF-α): effectively inhibited; fluorescent signal of labeled macrophages in sole injected with 0.1% CG [3]: lower fluorescent signal"
"Cc1cc(SCc2nnc(-c3ccc(C(F)(F)F)cc3)s2)ccc1OC(C)C(=O)O (stereo not shown) [Example 2, 2-(2-methyl-4-(((5-(4-(trifluoromethyl)phenyl)-1,3,4-thiadiazol-2-yl)methyl)thio)phenoxy)propanoic acid]",420,–
"Cc1cc(SCc2nnc(-c3ccc(C(F)(F)F)cc3)s2)ccc1OC(C)(C)C(=O)O [Example 3, 2-methyl-2-(2-methyl-4-(((5-(4-(trifluoromethyl)phenyl)-1,3,4-thiadiazol-2-yl)methyl)thio)phenoxy)propanoic acid]",374,–
"Cc1cc(SCc2nnc(-c3ccc(C(F)(F)F)cc3)s2)ccc1OCC(=O)NC#N [Example 8, N-cyano-2-(2-methyl-4-(((5-(4-(trifluoromethyl)phenyl)-1,3,4-thiadiazol-2-yl)methyl)thio)phenoxy)acetamide]",504,–
"Cc1cc(SCc2nnc(-c3ccc(F)cc3)s2)ccc1OCC(=O)O [Example 9, 2-(4-(((5-(4-fluorophenyl)-1,3,4-thiadiazol-2-yl)methyl)thio)-2-methylphenoxy)acetic acid]",2440,–
"Cc1cc(SCc2nnc(-c3ccc(F)c(F)c3)s2)ccc1OCC(=O)O [Example 12, 2-(4-(((5-(3,4-difluorophenyl)-1,3,4-thiadiazol-2-yl)methyl)thio)-2-methylphenoxy)acetic acid]",663,–
"Cc1cc(SCc2nnc(-c3ccc(F)c(F)c3)s2)ccc1OC(C)C(=O)O (stereo not shown) [Example 13, 2-(4-(((5-(3,4-difluorophenyl)-1,3,4-thiadiazol-2-yl)methyl)thio)-2-methylphenoxy)propanoic acid]",6160,–
"Cc1cc(SCc2nnc(-c3cc(F)c(F)c(F)c3)s2)ccc1OCC(=O)O [Example 15, 2-(2-methyl-4-(((5-(3,4,5-trifluorophenyl)-1,3,4-thiadiazol-2-yl)methyl)thio)phenoxy)acetic acid]",4010,–
"Cc1cc(SCc2nnc(-c3ccc(F)c(Cl)c3)s2)ccc1OCC(=O)O [Example 16, 2-(4-(((5-(3-chloro-4-fluorophenyl)-1,3,4-thiadiazol-2-yl)methyl)thio)-2-methylphenoxy)acetic acid]",1350,–
"Cc1cc(SCc2nnc(-c3ccc(C(F)(F)F)c(F)c3)s2)ccc1OC(C)(C)C(=O)O [Example 21, 2-(4-(((5-(3-fluoro-4-(trifluoromethyl)phenyl)-1,3,4-thiadiazol-2-yl)methyl)thio)-2-methylphenoxy)-2-methylpropanoic acid]",2660,–
"Cc1ccc(-c2nnc(CSc3ccc(OC(C)C(=O)O)c(C)c3)s2)cc1 (stereo not shown) [Example 23, 2-(2-methyl-4-(((5-(p-tolyl)-1,3,4-thiadiazol-2-yl)methyl)thio)phenoxy)propanoic acid]",5700,–
"Cc1ccc(-c2nnc(CSc3ccc(OC(C)(C)C(=O)O)c(C)c3)s2)cc1 [Example 24, 2-methyl-2-(2-methyl-4-(((5-(p-tolyl)-1,3,4-thiadiazol-2-yl)methyl)thio)phenoxy)propanoic acid]",1250,–
"Cc1cc(SCc2nnc(-c3ccc(OC(F)(F)F)cc3)s2)ccc1OCC(=O)O [Example 25, 2-(2-methyl-4-(((5-(4-(trifluoromethoxy)phenyl)-1,3,4-thiadiazol-2-yl)methyl)thio)phenoxy)acetic acid]",42,–
"Cc1cc(SCc2nnc(-c3ccc(OC(F)(F)F)cc3)s2)ccc1OC(C)C(=O)O (stereo not shown) [Example 26, 2-(2-methyl-4-(((5-(4-(trifluoromethoxy)phenyl)-1,3,4-thiadiazol-2-yl)methyl)thio)phenoxy)propanoic acid]",1240,–
"Cc1cc(SCc2nnc(-c3ccc(OC(F)(F)F)cc3)s2)ccc1OC(C)(C)C(=O)O [Example 27, 2-methyl-2-(2-methyl-4-(((5-(4-(trifluoromethoxy)phenyl)-1,3,4-thiadiazol-2-yl)methyl)thio)phenoxy)propanoic acid]",595,–
